In one assay the target is PDE10 from 786-O (Homo sapiens, UniProt Q9Y233). The assay can be described thus: Inhibition and kinetics of PDE10 from 786-O (pooled fractions of the center peak). The class given is biochemical. The note with it: for IC50: pooled center-peak fractions. As to the method:
(§1) Fractions were pooled from a 786-O profile from the center peak.
as §1
(§2) Protein assays were determined using the Bio-Rad DC Protein Assay. A nonlinear regression to the Michalis-Menten equation in Prism was used to determine the Km and Vmax.
as §2

The target in assay [1] is cloned and expressed human PDE10 (Homo sapiens, UniProt Q9Y233). To be noted: cited from earlier work; for IC50 / Published IC50s on cloned PDE10, cAMP / Published IC50s on cloned PDE10, cGMP: literature values.
Chain of cloned and expressed human PDE10 (Q9Y233 1-779 isoform Q9Y233-1): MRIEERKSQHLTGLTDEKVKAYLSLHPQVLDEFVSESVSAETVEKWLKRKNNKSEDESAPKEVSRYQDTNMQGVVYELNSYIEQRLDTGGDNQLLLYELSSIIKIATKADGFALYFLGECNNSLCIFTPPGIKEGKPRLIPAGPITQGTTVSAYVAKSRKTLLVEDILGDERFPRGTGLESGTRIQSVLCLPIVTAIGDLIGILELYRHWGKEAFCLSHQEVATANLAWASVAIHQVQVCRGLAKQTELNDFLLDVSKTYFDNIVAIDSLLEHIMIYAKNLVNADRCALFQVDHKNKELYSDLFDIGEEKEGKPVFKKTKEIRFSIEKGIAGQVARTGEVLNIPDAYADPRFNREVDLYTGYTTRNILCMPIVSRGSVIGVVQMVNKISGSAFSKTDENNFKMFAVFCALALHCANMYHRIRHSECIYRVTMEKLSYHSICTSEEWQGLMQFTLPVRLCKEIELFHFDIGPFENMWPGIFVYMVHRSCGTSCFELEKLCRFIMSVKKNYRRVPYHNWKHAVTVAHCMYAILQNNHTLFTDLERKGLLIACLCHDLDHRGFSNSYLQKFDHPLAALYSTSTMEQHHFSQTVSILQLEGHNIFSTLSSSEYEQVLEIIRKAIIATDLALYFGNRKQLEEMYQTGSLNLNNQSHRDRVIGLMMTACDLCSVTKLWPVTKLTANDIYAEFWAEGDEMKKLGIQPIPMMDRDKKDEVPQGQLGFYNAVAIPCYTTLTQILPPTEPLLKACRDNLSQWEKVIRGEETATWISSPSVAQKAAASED
Assay [2] relates to 786-O cells. Kind of assay: Apoptosis on 786-O cells (Roche Cell Death Assay). The class given is cell-based, human. To be noted: 48 hours with drug. The procedure:
Testing of PDE10-Inhibiting Compounds for Apoptosis on Renal Carcinoma (786-O) Cells. […] After 24 hours, the media was removed and the same media containing the drug was added to the cells (0.1% DMSO final concentration). After 48 hours, apoptosis was detected using the Roche Cell Death Assay.

Assay [3] deals with 786-O cells. Format: cell-based. The note with it: Homo sapiens, 786-0, 144 h; 6 days with drug, sulforhodamine B. The procedure:
Testing of Neoplastic Cell Growth Inhibition of PDE10-Inhibiting Compounds on Renal Cell Carcinoma (786-O) Cells. […] After 24 hours, the media was removed, and the same media containing the drug was added to the cells (0.1% DMSO final concentration).

The mark [4] stands for this setting: read-out: μM IC50s on PDE10 from 786-O, cAMP, cAMP substrate at 0.09 μM, table: N = 2 average, EHNA, Milrinone, Rolipram N = 1.
Setting [5] is: read-out: μM IC50s on PDE10 from 786-O, cGMP, cGMP substrate at 5.5 μM, table: N = 2 average, EHNA, Milrinone, Rolipram N = 1.
[6] abbreviates: read-out: Published IC50s on cloned PDE10, cAMP, cAMP as substrate.
The mark [7] stands for this setting: read-out: Published IC50s on cloned PDE10, cGMP, cGMP as substrate.
Where [8] appears, read: μM IC50s on PDE10 from 786-O, cAMP, cAMP substrate at 0.09 μM, table: N = 2 average, EHNA, Milrinone, Rolipram N = 1.
The mark [9] stands for this setting: μM IC50s on PDE10 from 786-O, cGMP, cGMP substrate at 5.5 μM, table: N = 2 average, EHNA, Milrinone, Rolipram N = 1.

Read-outs that look alike come from different tables or passages of the source.

Chain of PDE10 from 786-O (Q9Y233 290-1055 limits assumed): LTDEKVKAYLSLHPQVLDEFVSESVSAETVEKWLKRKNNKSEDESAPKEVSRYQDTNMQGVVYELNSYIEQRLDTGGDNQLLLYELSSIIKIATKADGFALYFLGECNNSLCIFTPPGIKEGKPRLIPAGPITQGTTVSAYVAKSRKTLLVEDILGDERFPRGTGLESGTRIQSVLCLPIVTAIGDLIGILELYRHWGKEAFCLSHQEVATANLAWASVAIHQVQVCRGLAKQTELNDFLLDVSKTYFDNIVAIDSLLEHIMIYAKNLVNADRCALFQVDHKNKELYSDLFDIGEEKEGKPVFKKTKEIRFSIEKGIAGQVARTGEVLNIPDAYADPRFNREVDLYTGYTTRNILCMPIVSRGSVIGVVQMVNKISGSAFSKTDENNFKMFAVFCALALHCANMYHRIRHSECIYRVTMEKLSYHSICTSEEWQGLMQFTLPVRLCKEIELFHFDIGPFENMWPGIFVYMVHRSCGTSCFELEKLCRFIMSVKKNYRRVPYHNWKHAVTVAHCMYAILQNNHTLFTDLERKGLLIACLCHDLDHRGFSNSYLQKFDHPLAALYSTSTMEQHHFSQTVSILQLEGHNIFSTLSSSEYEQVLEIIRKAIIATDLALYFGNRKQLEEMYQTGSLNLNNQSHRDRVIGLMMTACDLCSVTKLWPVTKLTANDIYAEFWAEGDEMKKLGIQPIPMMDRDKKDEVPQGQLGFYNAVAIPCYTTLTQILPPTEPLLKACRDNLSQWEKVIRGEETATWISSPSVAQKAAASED

Consider `CCCCCC[C@@H]([C@@H](C)O)n1cnc2c(N)ncnc21` (racemic) [EHNA], for which the IC50 was 60 µM on PDE10 from 786-O (setting [4]), 46 µM at PDE10 from 786-O (setting [5]), more than 100 µM in assay [1] (setting [6]) and more than 100 µM in assay [1] (setting [7]).

With `COc1cc(/C=C2/C(C)=C(CC(=O)NCc3ccccc3)c3cc(F)ccc32)cc(OC)c1OC` [Compound A, 1 H-indene-3-acetamide, 5-fluoro-2-methyl-N-(phenylmethyl)-1-[(3,4,5-trimethoxyphenyl)methylene]-, (1Z)], the IC50 on PDE10 from 786-O (IC50 on PDE10 from 786-O (inhibition of cGMP PDE activity), FIG. 10) amounted to 0.031 µM; in the assay with 786-O cells [2] (Homo sapiens, 786-0, read-out: IC50 for induction of apoptosis in the 786-O cell line), 0.071 µM; with 786-O cells [3], 0.03 µM.

As to `O=C(O)C1CCN(c2nc(NCc3ccc4c(c3)OCO4)c3cc(Cl)ccc3n2)CC1` [Example E4021], the IC50 at PDE10 from 786-O (setting [4]) was 2.8 µM; at PDE10 from 786-O (setting [5]), 3.2 µM; in assay [1] (setting [6]), 7.2 µM; in assay [1] (setting [7]), 4.2 µM.

In the case of `CC1=C(CC(=O)O)c2cc(F)ccc2/C1=C\c1ccc(S(C)(=O)=O)cc1` [Exisulind, exisulind, reference compound], the IC50 was determined as 134 µM on PDE10 from 786-O (IC50 on PDE10 from 786-O (inhibition of cGMP PDE activity), FIG. 8, 9) and 273 µM with 786-O cells [3]. In the assay with 786-O cells [2], the “Induction of apoptosis in the 786-O cells” value was “did not show significant induction of apoptosis”.

Regarding `CC(C)Cn1c(=O)n(C)c(=O)c2[nH]cnc21` [IBMX], the IC50 at PDE10 from 786-O (setting [4]) is 4.5 µM; at PDE10 from 786-O (setting [5]) it was 6.3 µM; in assay [1] (setting [6]), 17 µM; in assay [1] (setting [7]), 11 µM.

On to `Cc1[nH]c(=O)c(C#N)cc1-c1ccncc1` [Milrinone], for which the IC50 was 84 µM against PDE10 from 786-O (setting [8]) and 103 µM against PDE10 from 786-O (setting [9]). In addition, the “Published IC50s on cloned PDE10, cAMP” value in assay [1] (cAMP as substrate) was more than 100 µM. The “Published IC50s on cloned PDE10, cGMP” value in assay [1] (cGMP as substrate) is more than 100 µM.

On to `CCOC(=O)C1=C[C@]2(CC)CCCN3CCc4c(n1c1ccccc41)[C@@H]32` [Vinpocetine], for which the IC50 against PDE10 from 786-O (setting [8]) stood at 38 µM; against PDE10 from 786-O (setting [9]), 45 µM. Besides, the “Published IC50s on cloned PDE10, cAMP” value in assay [1] (cAMP as substrate) is 77 µM. Moreover, in assay [1] (cGMP as substrate), the “Published IC50s on cloned PDE10, cGMP” value was 73 µM.

For `CCCOc1ccccc1-c1nc2nn[nH]c2c(=O)[nH]1` [Zaprinast], the IC50 was 13 µM at PDE10 from 786-O (setting [8]) and 17 µM against PDE10 from 786-O (setting [9]). For the same compound, the “Published IC50s on cloned PDE10, cGMP” value in assay [1] (cGMP as substrate) is 14 µM.

On to `Nc1nc2c(ncn2[C@@H]2O[C@@H]3COP(=O)(O)O[C@H]3[C@H]2O)c(=O)[nH]1` [cGMP, cyclic 3′,5′-guanosine monophosphate], for which the Km (in general, the concentration of substrate that gives half-maximal velocity) on PDE10 from 786-O (Michaelis-Menten plot, 30 min at 30° C., FIG. 4, 6, read-out: Km for the 786-O PDE) was 6.5 µM; on PDE10 from 786-O (pooled fractions 57-75 of PDE10, read-out: Km, average of three values (stdev in parenthesis)) it was 5.5 µM; in assay [1] (Fujishige et al. 1999, read-out: Km published for cloned and expressed PDE10), 7.2 µM. Further, at PDE10 from 786-O (pooled center-peak fraction), the Vmax – broadly, the top rate of the reaction or transport when substrate is in excess – is recorded as 461 pmol/min/mg. Besides, the IC50 at PDE10 from 786-O (setting [4]) is 5.2 µM; in assay [1] (setting [6]), 14 µM. Besides, on PDE10 from 786-O (times higher than Vmax for cAMP), the “Vmax ratio of cGMP/cAMP” value amounted to 2.4. Besides, in assay [1] (Fujishige et al. 1999), the “Vmax ratio of cGMP/cAMP, cloned and expressed PDE10” value is recorded as 2.2.

The values above are taken from patent US6538029B1, “Methods for treatment of renal cell carcinoma” (Cell Pathways, priority 2002, dated 2003).
